Measured values reported in ChEMBL document CHEMBL1139939, “Synthesis and biological activity of naphthalene analogues of phenstatins: naphthylphenstatins” (Bioorg Med Chem Lett, 2007).

Assays:
[1] = target: T1, Tubulin (Homo sapiens) (UniProt P68371+Q9H4B7+P0DPH7+P68366+Q13509+Q71U36+P04350+Q3ZCM7+P07437+P68363+Q9BQE3+Q6PEY2+Q13885+Q9BVA1+Q9BUF5); experiment: Inhibition of tubulin polymerization at 20 uM; assay type: protein-complex assay
[2] = test system: HeLa; experiment: Cytotoxicity against human HeLa cells; assay type: functional, cell-based
[3] = test system: A549; experiment: Cytotoxicity against human A549 cells; assay type: functional, cell-based
[4] = test system: HT-29; experiment: Cytotoxicity against human HT29 cells; assay type: functional, cell-based
[5] = target: T1, Tubulin (Homo sapiens); experiment: Inhibition of tubulin polymerization at 40 uM; assay type: protein-complex assay

Row | inhibition [1] [%] | inhibition [5] [%] | SMILES | IC50 [2] [µM] | IC50 [3] [µM] | IC50 [4] [µM]
1 | 0 |  | COc1ccc(C(O)c2ccc3ccccc3c2)c(OC)c1OC (centres undefined) | > 10 | > 10 | > 10
2 |  | 0 | COc1cc(C(O)c2ccc3ccccc3c2)cc(OC)c1OC (centres undefined) |  |  | 
3 | 4 |  | COc1ccc(C(=O)c2ccc3ccccc3c2)c(OC)c1OC | 1.7 | > 10 | > 10
4 |  |  | COc1cc(/C=C\c2ccc3ccccc3c2)cc(OC)c1OC [NAPHTHYLCOMBRETASTATIN] | 0.02 | 0.02 | 0.02
5 | 5 |  | COc1cc(C(OC(C)=O)c2ccc3ccccc3c2)cc(OC)c1OC (centres undefined) | 3.8 | > 10 | > 10
6 | 26 |  | COc1ccc(C(OC(C)=O)c2ccc3ccccc3c2)c(OC)c1OC (centres undefined) | 2.7 | > 10 | > 10
7 |  |  | COc1ccc(/C=C\c2cc(OC)c(OC)c(OC)c2)cc1O [COMBRETASTATIN A4] |  |  | 0.003
8 |  | 100 | COc1cc(C(=O)c2ccc3ccccc3c2)cc(OC)c1OC | 0.042 | 0.25 | 
